# Data as given in patent publication US6500858B2, “Taxoid anti-tumor agents and pharmaceutical compositions thereof” (The Research Foundation of the state University of New York, priority 1994, dated 2002).
# Entries after “also recorded” stand apart in the source; their conditions may differ. Like-named read-outs stand apart in the source and are kept apart here.
# Tests used:
# HT-29 (colon carcinoma) = assay: tumor cell growth inhibition (SRB, 72 h drug exposure); format: cell-based, human; conditions: for IC50: 72 h drug exposure
# Description: (§1) Lower numbers indicate higher potency. […] The data represent the mean values of at least three separate experiments. Lower numbers indicate greater activity.
# (§2) Assessment of cell growth inhibition was determined according to the methods of Skehan et al., J. Nat. Cancer Inst. […] Briefly, cells were plated between 400 and 1200 cells/well in 96 well plates and incubated at 37° C. for 15-18 h prior to drug addition to allow attachment of cells. […] After a 72 h incubation, […] of ice-cold 50% TCA was added to each well and incubated for 1 h at 4° C. Plates were then washed 5 times with tap water to remove TCA, low-molecular-weight metabolites and serum proteins. Sulforhodamine B (SRB) (0.4%, […]) was added to each well. Following a 5 min incubation at room temperature, plates were rinsed 5 times with 0.1% acetic acid and air dried. […] Optical density was measured at 570 nm.
# A121 (ovarian carcinoma) = assay: as above; format: cell-based, human; conditions: for IC50: 72 h drug exposure
# Description: as §1, §2
# MCF7 (mammary carcinoma) = assay: as above; format: cell-based, human; conditions: for IC50: 72 h drug exposure
# Description: as §1, §2
# [1] = system: A549 (non-small cell lung carcinoma); assay: as above; format: cell-based, human; conditions: for IC50: 72 h drug exposure, read-out: A549 (NSCLC) IC50
# Description: as §1, §2
# [2] = system: MCF7-R (mammary carcinoma cells 180-fold resistant to adriamycin); assay: as above; format: cell-based, human; conditions: for IC50: 72 h drug exposure
# Description: as §1, §2
# [3] = system: LCC6-MDR: MDR1 transduced line; assay: cytotoxicity assay of second generation taxoids; format: cell-based, human; conditions: for activity against drug-resistant vs drug-sensitive cell lines, in words: LCC6 and MCF7 pairs
# [4] = system: LCC6-WT: human breast carcinoma; assay: cytotoxicity assay of second generation taxoids; format: cell-based; conditions: 72 h drug exposure, read-out: LCC6-WT IC50
# Description: A cytotoxicity assay of these new second generation taxoids was performed on human breast cancer cell lines, LCC6-WT and LCC-MDR, and selected taxoids were also assayed for their potency against MCF7 and MCF7-R (Skehan, P., et al., J. Nat. Cancer Inst. 1990, 82, 1107-1112).
# A2780 = assay: growth inhibition by cell counts, 72 h; format: cell-based, human; conditions: Homo sapiens, A2780, 72 h; read-out: A2780 IC50
# Description: (§3) Cells were plated in 6-well flat bottom plates (Falcon, Lincoln Park, N.J.) at a concentration of 10^5 cells ml in complete medium. After 24 h, the medium was replaced with media containing the test substances. Control cells were treated with vehicle alone. Cells were then washed twice and cultures maintained up to 72 h in complete medium (without removing the test substances). At this time point quadruplicate counts of triplicate cultures were performed. To calculate the growth inhibition effect, three independent experiments were performed for each test substance/cell line. The IC50 values were then calculated by fitting the concentration-effect curve data obtained in the three experiments with the sigmoid-Emax model using nonlinear regression, weighted by the reciprocal of the square of the predicted effect according to the method of Motulsky, H. J. and Ransnas, L. A., FASEB J. 1:365-74 (1987).
# NCI-H23 = assay: growth inhibition by cell counts, 72 h; format: cell-based, human; conditions: Homo sapiens, NCI-H23, 72 h; read-out: NCI-H23 IC50
# Description: as §3
# MCF-7 ADRr = assay: growth inhibition by cell counts, 72 h; format: cell-based, human; conditions: Homo sapiens, MCF7, 72 h; read-out: MCF-7 ADRr IC50
# Description: as §3
# DU-145 = assay: growth inhibition by cell counts, 72 h; format: cell-based, human; conditions: Homo sapiens, DU-145, 72 h; read-out: DU-145 IC50
# Description: as §3
# MCF-7 wt = assay: growth inhibition by cell counts, 72 h; format: cell-based, human; conditions: Homo sapiens, MCF7, 72 h; read-out: MCF-7 wt IC50
# Description: as §3
# WiDr = assay: growth inhibition by cell counts, 72 h; format: cell-based, human; conditions: Homo sapiens, WiDr, read-out: WiDr IC50
# Description: as §3
# [5] = Table 1, read-out: MCF7 (breast) IC50
structure (smiles),measurement,setting,value
CC(=O)O[C@@]12CO[C@@H]1C[C@H](O)[C@@]1(C)C(=O)[C@H](O)C3=C(C)[C@@H](OC(=O)[C@H](O)[C@H](CC(C)(C)C)NC(=O)OC(C)(C)C)C[C@@](O)([C@@H](OC(=O)c4ccccc4)[C@H]21)C3(C)C [3′-dephenyl-3′-neopentyldocetaxel],cytotoxicity in words,HT-29 (colon carcinoma); HT-29 human colon,virtually not cytotoxic
same,cytotoxicity in words,A121 (ovarian carcinoma); A121 human ovarian,virtually not cytotoxic
same,cytotoxicity in words,MCF7 (mammary carcinoma); MCF7 human breast,virtually not cytotoxic
same,cytotoxicity in words,[1]; A549 human non-small cell lung,virtually not cytotoxic
"CC=CC(NC(=O)OC(C)(C)C)C(O)C(=O)OC1CC2(O)C(OC(=O)c3ccccc3)C3C4(OC(C)=O)COC4CC(O)C3(C)C(=O)C(OC(C)=O)C(=C1C)C2(C)C (stereo not shown) [Taxoid Ia, 3′-dephenyl-3′-(1-propenyl)-10-acetyldocetaxel]",IC50,[2]; Table 1,14 nM
same,times better activity than docetaxel,[2]; MCF7-R,17 times
same,times better activity than paclitaxel,[2]; MCF7-R,21 times
same,IC50,HT-29 (colon carcinoma),0.76 nM
same,IC50,A121 (ovarian carcinoma),0.9 nM
same,IC50,MCF7 (mammary carcinoma); [5],0.51 nM
same,IC50,[1],0.54 nM
"CC(=O)O[C@@]12CO[C@@H]1C[C@H](O)[C@@]1(C)C(=O)[C@H](O)C3=C(C)[C@@H](OC(=O)[C@H](O)[C@@H](NC(=O)OC(C)(C)C)c4ccccc4)C[C@@](O)([C@@H](OC(=O)c4ccccc4)[C@H]21)C3(C)C [Docetaxel, docetaxel, reference compound]",IC50,"[3]; Homo sapiens, LCC6MDR, 72 h drug exposure, read-out: LCC6-MDR IC50",120 nM
same,IC50,[4]; Homo sapiens,1 nM
same,IC50,"HT-29 (colon carcinoma); Homo sapiens, HT-29",1.2 nM
same,IC50,"A121 (ovarian carcinoma); Homo sapiens, A121",1.2 nM
same,IC50,"MCF7 (mammary carcinoma); Homo sapiens, MCF7, Table 1, read-out: MCF7 (breast) IC50",1 nM
same,IC50,"MCF7 (mammary carcinoma); Homo sapiens, MCF7, Table 3, read-out: MCF7 IC50",1 nM
same,IC50,"[1]; Homo sapiens, A549",1 nM
same,IC50,A2780,4.95 nM
same,IC50,NCI-H23,3 nM
same,IC50,MCF-7 ADRr,970 nM
same,IC50,DU-145,0.8 nM
same,IC50,MCF-7 wt,3.6 nM
same,IC50,WiDr,2.3 nM
"CCC(=O)OC1C(=O)C2(C)C(O)CC3OCC3(OC(C)=O)C2C(OC(=O)c2cccc(N=[N+]=[N-])c2)C2(O)CC(OC(=O)C(O)C(C=C(C)C)NC(=O)OC(C)(C)C)C(C)=C1C2(C)C (stereo not shown) [Taxoid 7o, 3′-Dephenyl-3′-(2-methylprop-1-enyl)-2-debenzoyl-2-(3-azidobenzoyl)-10-propanoyldocetaxel]","activity against drug-resistant vs drug-sensitive cell lines, in words",[3],virtually no difference in activity
same,IC50,[4],0.9 nM
same,IC50,[2]; Table 3,1.1 nM
same,IC50,"MCF7 (mammary carcinoma); Table 3, read-out: MCF7 IC50",0.9 nM
"CC(=O)OC1C(=O)C2(C)C(O)CC3OCC3(OC(C)=O)C2C(OC(=O)c2ccccc2)C2(O)CC(OC(=O)C(O)C(NC(=O)OC(C)(C)C)C(F)(F)F)C(C)=C1C2(C)C (stereo not shown) [Taxoid Ig, 3′-Dephenyl-3 ′-trifluoromethyl-10-acetyldocetaxel]",IC50,[2]; Table 1,17 nM
same,IC50,HT-29 (colon carcinoma),0.4 nM
same,IC50,A121 (ovarian carcinoma),0.37 nM
same,IC50,MCF7 (mammary carcinoma); [5],0.25 nM
same,IC50,[1],0.25 nM
"CCC(=O)OC1C(=O)C2(C)C(O)CC3OCC3(OC(C)=O)C2C(OC(=O)c2cccc(N=[N+]=[N-])c2)C2(O)CC(OC(=O)C(O)C(CC(C)C)NC(=O)OC(C)(C)C)C(C)=C1C2(C)C (stereo not shown) [Taxoid 7n, 3′-Dephenyl-3′-(2-methylpropyl)-2-debenzoyl-2-(3-azidobenzoyl)-10-propanoyldocetaxel]",IC50,[4],1.1 nM
same,IC50,[2]; Table 3,2.1 nM
same,IC50,"MCF7 (mammary carcinoma); Table 3, read-out: MCF7 IC50",1 nM
"C=CCCC(NC(=O)OC(C)(C)C)C(O)C(=O)OC1CC2(O)C(OC(=O)c3cccc(OC)c3)C3C4(OC(C)=O)COC4CC(O)C3(C)C(=O)C(OC(=O)CC)C(=C1C)C2(C)C (stereo not shown) [Taxoid 7h, 3′-Dephenyl-3′-(3-butenyl)-2-debenzoyl-2-(3-methoxybenzoyl)-10-propanoyldocetaxel]",IC50,[4],0.9 nM
same,IC50,[2]; Table 3,7.7 nM
same,IC50,"MCF7 (mammary carcinoma); Table 3, read-out: MCF7 IC50",2 nM
"CCC(=O)OC1C(=O)C2(C)C(O)CC3OCC3(OC(C)=O)C2C(OC(=O)c2cccc(OC)c2)C2(O)CC(OC(=O)C(O)C(C=C(C)C)NC(=O)OC(C)(C)C)C(C)=C1C2(C)C (stereo not shown) [Taxoid 7f, 3′-Dephenyl-3′-(2-methylprop-1-enyl)-2-debenzoyl-2-(3-methoxybenzoyl)-10-propanoyldocetaxel]","activity against drug-resistant vs drug-sensitive cell lines, in words",[3],slightly better activity against the drug-resistant cell lines; also recorded: virtually no difference in activity
same,IC50,[4],1 nM
same,IC50,[2]; Table 3,0.33 nM
same,IC50,"MCF7 (mammary carcinoma); Table 3, read-out: MCF7 IC50",0.36 nM
"COc1cccc(C(=O)OC2C3C4(OC(C)=O)COC4CC(O)C3(C)C(=O)C(OC(C)=O)C3=C(C)C(OC(=O)C(O)C(C=C(C)C)NC(=O)OC(C)(C)C)CC2(O)C3(C)C)c1 (stereo not shown) [Taxoid 7l, 3′-Dephenyl-3′-(2-methylprop-1-enyl)-2-debenzoyl-2-(3-methoxybenzoyl)-10-acetyldocetaxel]",IC50,[4],0.6 nM
same,IC50,[2]; Table 3,2.3 nM
same,IC50,"MCF7 (mammary carcinoma); Table 3, read-out: MCF7 IC50",0.8 nM
